Results from patent publication US11999769B2, “Method for isolating and purifying bacteriocin against drug-resistant Staphylococcus aureus” (Zhejiang Gongshang University, priority 2022, dated 2024).

Tested on: S. aureus D48
Assay: effect on membrane potential difference, DiSC2(5) fluorescent probe
Type: cell-based, Staphylococcus aureus
Conditions: bacteriocin 1×MIC; Triton X-100 5% solution as positive control; scanning time 15 min
Experimental: S. aureus D48 cells were prepared by the same method as that in Example 3, washed with a 5 mM fluorescent leakage buffer and resuspended to 5 mL to obtain a bacterial suspension. A fluorescent probe DiSC2(5) was set to have an excitation wavelength of 650 nm and an emission wavelength of 670 nm. The scanning interval was set as Ex slit: 5 nm, Em slit: 5 nm, and the scanning time was 15 min. 2 mL of the fluorescent leakage buffer, 20 μL of the bacterial suspension, and 3 μL of 0.1 mM probe DiSC2(5) were added to a fluorescence cuvette, and mixed uniformly for detection. After the fluorescence response value became stable, the L. rhamnosus ZFM216 bacteriocin solution with a final concentration of 1×MIC was quickly added in the experimental group, and the same volume of fluorescence leakage buffer and 5% Triton X-100 solution were added to the control groups respectively.
Note: The preparation method of the fluorescent leakage buffer is: 0.7455 g of potassium chloride and 0.2463 g of a magnesium sulfate heptahydrate solution are accurately weighed, 22.5 mL of a 20% glucose solution and 10 mL of a phosphate buffer solution are measured, the volume is diluted to 100 mL with ultrapure water, the pH is adjusted to 7, and the prepared fluorescent leakage buffer is stored at 4° C. for later use.

Triton X-100 [TritonX-100]
fluorescence intensity of S. aureus D48 bacterial suspension (DiSC2(5)): rapidly increased to the highest value
